In publication PMC7700423, “Differential Effects of 1α,25-Dihydroxyvitamin D3 on the Expressions and Functions of Hepatic CYP and UGT Enzymes and Its Pharmacokinetic Consequences In Vivo” (Pharmaceutics, 2020):

Key:
[1] = Serum chemistry for liver function after 1,25(OH)2D3 treatment; assay type: in vivo, rat; conditions: fifth day after 2.56 nmol/kg/day i.p. for 4 days, n = 3
Description: Male Sprague-Dawley (SD) rats (8 weeks, 260–280 g) were purchased from Nara Biotech Co. (Seoul, Korea). Animals were maintained in cages under controlled conditions under a 12-h dark/light cycle with free access to food and tap water, acclimated for at least five days in the laboratory before experiments, and allocated to a control group or 1,25(OH)2D3-treated group. The 1,25(OH)2D3 dosing solution was prepared by diluting 1,25(OH)2D3 in ethanol with 5 mL of corn oil (2.56 nmol/mL of final concentration). The dosing solution for the control group was prepared but the 1,25(OH)2D3 was omitted. The dosing solutions were administered intraperitoneally to rats at a dose of 1 mL/kg/day (2.56 nmol/kg/day as 1,25(OH)2D3) over four consecutive days. On the fifth day, rats were used for pharmacokinetic study.
Rat serum was obtained from whole blood on the fifth day after the 1,25(OH)2D3 treatment. The assay of total protein, albumin, serum glutamic oxaloacetic transaminase (sGOT), and serum glutamic pyruvic transaminase (sGPT) was performed by Green Cross Reference Laboratory (Seoul, Korea).

liver tissue = assay: Liver histology (H&E) after 1,25(OH)2D3 treatment; assay type: in vivo, rat; conditions: H&E sections after four days of treatment
Description: (§1) Male Sprague-Dawley (SD) rats (8 weeks, 260–280 g) were purchased from Nara Biotech Co. (Seoul, Korea). […] The dosing solution for the control group was prepared but the 1,25(OH)2D3 was omitted. […] On the fifth day, rats were used for pharmacokinetic study.

hepatic Cyp1a2 mRNA = assay: Hepatic mRNA expression by qPCR; assay type: in vivo, rat; conditions: 2.56 nmol/kg/day i.p. for 4 days, n = 4-5
Description: as §1
(§2) Collected livers were frozen immediately with liquid nitrogen and stored at −80 °C. Trizol reagent in RNAiso Plus (Takara Bio, Inc., Shiga, Japan) was used to extract RNA from 100-mg tissue homogenates according to the manufacturer’s protocol. After purities and total RNA concentrations extracted from liver samples were determined at a wavelength of 260/280 nm with a Nanodrop 2000c spectrophotometer (Thermo Scientific, Waltham, MA, USA), synthesis of cDNA was processed from 1 μg of total RNA using the following conditions: incubation at 50 °C for 1 h, inactivation at 95 °C for 5 min, and cooling to 4 °C. The synthesized cDNA was then subjected to qPCR assays using SYBR® Premix Ex TagTM on Stratagene Mx3005P (Agilent Technologies, Boblingen, Germany) using the following conditions: 95 °C for 10 min and 40 cycles of 95 °C for 15 s and 55 °C for 30 s. A “Comparative Quantitation” mode was selected, and fold expressions were calculated using the delta-delta method 2^−(△△Ct). GAPDH was used as the internal reference gene for normalization. The forward and reverse primers used for qPCR analysis are listed in Supplementary Table S1 [2, 25, 28, 29].

hepatic Cyp2b1 mRNA = assay: Hepatic mRNA expression by qPCR; assay type: in vivo, rat; conditions: 2.56 nmol/kg/day i.p. for 4 days, n = 4-5, p = 0.006
Description: as §1, §2

hepatic Cyp2c11 mRNA = assay: Hepatic mRNA expression by qPCR; assay type: in vivo, rat; conditions: 2.56 nmol/kg/day i.p. for 4 days, n = 4-5, p = 0.001
Description: as §1, §2

hepatic Cyp2c6 mRNA = assay: Hepatic mRNA expression by qPCR; assay type: in vivo, rat; conditions: 2.56 nmol/kg/day i.p. for 4 days, n = 4-5
Description: as §1, §2

hepatic Cyp2d2 mRNA = assay: Hepatic mRNA expression by qPCR; assay type: in vivo, rat; conditions: 2.56 nmol/kg/day i.p. for 4 days, n = 4-5
Description: as §1, §2

hepatic Ugt1a1 mRNA = assay: Hepatic mRNA expression by qPCR; assay type: in vivo, rat; conditions: 2.56 nmol/kg/day i.p. for 4 days, n = 4-5
Description: as §1, §2

hepatic Ugt1a6 mRNA = assay: Hepatic mRNA expression by qPCR; assay type: in vivo, rat; conditions: 2.56 nmol/kg/day i.p. for 4 days, n = 4-5
Description: as §1, §2

hepatic Ugt1a7 mRNA = assay: Hepatic mRNA expression by qPCR; assay type: in vivo, rat; conditions: 2.56 nmol/kg/day i.p. for 4 days, n = 4-5
Description: as §1, §2

hepatic Ugt1a8 mRNA = assay: Hepatic mRNA expression by qPCR; assay type: in vivo, rat; conditions: 2.56 nmol/kg/day i.p. for 4 days, n = 4-5
Description: as §1, §2

hepatic Ugt2b1 mRNA = assay: Hepatic mRNA expression by qPCR; assay type: in vivo, rat; conditions: 2.56 nmol/kg/day i.p. for 4 days, n = 4-5
Description: as §1, §2

hepatic Ugt2b3 mRNA = assay: Hepatic mRNA expression by qPCR; assay type: in vivo, rat; conditions: 2.56 nmol/kg/day i.p. for 4 days, n = 4-5
Description: as §1, §2

hepatic Cyp2b1 protein = assay: Hepatic protein expression by Western blotting; assay type: in vivo, rat; conditions: 2.56 nmol/kg/day i.p. for 4 days, n = 5, p = 0.0006
Description: (§3) (Seoul, Korea). […] On the fifth day, rats were used for pharmacokinetic study. For protein extraction, the rat liver tissues were homogenized in RIPA buffer (#89900, ThermoFisher Scientific, Waltham, MA, USA) with protease/phosphatase inhibitors using a Diax 900 homogenizer. The homogenized liver samples were incubated in ice for 30 min (for complete lysis) with vortexing every 5 min, and then centrifuged at 14,000× g for 30 min. The supernatants were collected and diluted by 10 times. The protein levels were quantified using the BCA Protein Assay Kit (#23227, ThermoFisher Scientific, Waltham, MA, USA) with bovine serum albumin (BSA) standards. Total protein lysates were subjected to Western blot analysis. Lysates were mixed with 2X Laemmli buffer (Bio-Rad) supplemented with β-mercaptoethanol (Bio-Rad) and boiled for 5 min. […] Immunoblotting was performed with the following antibodies: rabbit CYP2C11 antibody (#ab3571, Abcam, Cambridge, UK), rabbit UGT1A6 antibody (#ab157476, Abcam, Cambridge, UK) and mouse CYP2B1/B2 antibody (#sc-53244, Santa Cruz Biotechnology, Dallas, TX, USA) and HRP-conjugated β-actin mouse antibody (Sigma; cat#A3854; 1:10,000). The following secondary antibodies were used: HRP-conjugated goat antibody to mouse IgG (Genetex; cat# GTX-213111-01, 1:5000), HRP-conjugated goat antibody to rabbit IgG (Genetex; cat# GTX-213110-01; 1:5000). Then, the bands were visualized via chemiluminescence (#34577, ThermoFisher Scientific, Waltham, MA, USA). Densitometric analysis of the bands was performed using ImageJ software (NIH; rsb.info.nih.gov/ij).

hepatic Cyp2b2 protein = assay: Hepatic protein expression by Western blotting; assay type: in vivo, rat; conditions: 2.56 nmol/kg/day i.p. for 4 days, n = 5, p = 0.1728
Description: as §3

hepatic Cyp2c11 protein = assay: Hepatic protein expression by Western blotting; assay type: in vivo, rat; conditions: 2.56 nmol/kg/day i.p. for 4 days, n = 5, p = 0.0001
Description: as §3

hepatic Ugt1a6 protein = assay: Hepatic protein expression by Western blotting; assay type: in vivo, rat; conditions: 2.56 nmol/kg/day i.p. for 4 days, n = 5, p = 0.5192
Description: as §1

[2] = substrate: CCCCNC(=O)NS(=O)(=O)c1ccc(C)cc1
[3] = substrate: CC(NC(C)(C)C)C(=O)c1cccc(Cl)c1

## C=C1/C(=C\C=C2/CCC[C@]3(C)[C@@H]([C@H](C)CCCC(C)(C)O)CC[C@@H]23)C[C@@H](O)C[C@@H]1O [1,25(OH)2D3, 1α,25-dihydroxyvitamin D3]
[1]
  Albumin: 3.97 ± 0.15 g/dL
  Total protein: 5.73 ± 0.25 g/dL
  sGOT: 158 ± 35 IU/L
  sGPT: 22.7 ± 3.2 IU/L
Liver tissue
  Damage to liver tissue (histology): no apparent evidence of damage to liver tissue
Hepatic Cyp1a2 mRNA
  mRNA expression of hepatic Cyp1a2 vs control rats: no significant differences
Hepatic Cyp2b1 mRNA
  mRNA expression of hepatic Cyp2b1 vs control rats: significantly lower
Hepatic Cyp2c11 mRNA
  mRNA expression of hepatic Cyp2c11 vs control rats: significantly lower
Hepatic Cyp2c6 mRNA
  mRNA expression of hepatic Cyp2c6 vs control rats: no significant differences
Hepatic Cyp2d2 mRNA
  mRNA expression of hepatic Cyp2d2 vs control rats: no significant differences
Hepatic Ugt1a1 mRNA
  mRNA expression of hepatic Ugt1a1 vs control rats: no significant differences
Hepatic Ugt1a6 mRNA
  mRNA expression of hepatic Ugt1a6 vs control rats: significantly lower
Hepatic Ugt1a7 mRNA
  mRNA expression of hepatic Ugt1a7 vs control rats: no significant differences
Hepatic Ugt1a8 mRNA
  mRNA expression of hepatic Ugt1a8 vs control rats: no significant differences
Hepatic Ugt2b1 mRNA
  mRNA expression of hepatic Ugt2b1 vs control rats: no significant differences
Hepatic Ugt2b3 mRNA
  mRNA expression of hepatic Ugt2b3 vs control rats: no significant differences
Hepatic Cyp2b1 protein
  Hepatic Cyp2b1 protein expression vs control rats: significantly decreased
Hepatic Cyp2b2 protein
  Hepatic Cyp2b2 protein expression vs control rats: lower, but this difference is not significant
Hepatic Cyp2c11 protein
  Hepatic Cyp2c11 protein level vs control rats: significantly lower
Hepatic Ugt1a6 protein
  Hepatic Ugt1a6 protein expression vs control rats: remained unchanged

B1: Cyp2c11 (Rattus norvegicus) (protein)
chain: MDPVLVLVLTLSSLLLLSLWRQSFGRGKLPPGPTPLPIIGNTLQIYMKDIGQSIKKFSKVYGPIFTLYLGMKPFVVLHGYEAVKEALVDLGEEFSGRGSFPVSERVNKGLGVIFSNGMQWKEIRRFSIMTLRTFGMGKRTIEDRIQEEAQCLVEELRKSKGAPFDPTFILGCAPCNVICSIIFQNRFDYKDPTFLNLMHRFNENFRLFSSPWLQVCNTFPAIIDYFPGSHNQVLKNFFYIKNYVLEKVKEHQESLDKDNPRDFIDCFLNKMEQEKHNPQSEFTLESLVATVTDMFGAGTETTSTTLRYGLLLLLKHVDVTAKVQEEIERVIGRNRSPCMKDRSQMPYTDAVVHEIQRYIDLVPTNLPHLVTRDIKFRNYFIPKGTNVIVSLSSILHDDKEFPNPEKFDPGHFLDERGNFKKSDYFMPFSAGKRICAGEALARTELFLFFTTILQNFNLKSLVDVKDIDTTPAISGFGHLPPFYEACFIPVQRADSLSSHL
[2]
  Km: 232.83 ± 51.33 µM
  Vmax: 683.37 ± 94.05 pmol/min/mg protein

B2: Cyp2b1 (Rattus norvegicus) (protein)
chain: MEPTILLLLALLVGFLLLLVRGHPKSRGNFPPGPRPLPLLGNLLQLDRGGLLNSFMQLREKYGDVFTVHLGPRPVVMLCGTDTIKEALVGQAEDFSGRGTIAVIEPIFKEYGVIFANGERWKALRRFSLATMRDFGMGKRSVEERIQEEAQCLVEELRKSQGAPLDPTFLFQCITANIICSIVFGERFDYTDRQFLRLLELFYRTFSLLSSFSSQVFEFFSGFLKYFPGAHRQISKNLQEILDYIGHIVEKHRATLDPSAPRDFIDTYLLRMEKEKSNHHTEFHHENLMISLLSLFFAGTETSSTTLRYGFLLMLKYPHVAEKVQKEIDQVIGSHRLPTLDDRSKMPYTDAVIHEIQRFSDLVPIGVPHRVTKDTMFRGYLLPKNTEVYPILSSALHDPQYFDHPDSFNPEHFLDANGALKKSEAFMPFSTGKRICLGEGIARNELFLFFTTILQNFSVSSHLAPKDIDLTPKESGIGKIPPTYQICFSAR
[3]
  Km: 171.70 ± 39.46 µM
  Vmax: 35.20 ± 6.62 pmol/min/mg protein
